Assay results as given in article PMC10714400, “Antimicrobial Peptide–Peptoid Hybrids with and without Membrane Disruption” (ACS Infectious Diseases, 2023).
Values after ≈ are worked out from the molar mass of the structure shown. Read-outs that look alike come from different tables or passages of the source. Where a SMILES comes first, the peptide text is derived from it. [ ]: non-standard residue; d: D form.

Key:
[1] = tested on: S. aureus COL (MRSA)
How it was run: (§1)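 MTT added (20–30 min, room temperature); MIC read by eye as lowest concentration inhibiting visible growth (yellow). Polymyxin B positive control from 16 μg/mL.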

[2] = tested on: K. pneumoniae NCTC418
How it was run: as §1

[3] = tested on: PA14 4.18 (pmrB)
How it was run: as §1

[4] = tested on: ZEM-1A (clinical MDR P. aeruginosa isolate)
How it was run: as §1

[5] = tested on: ZEM9A (clinical MDR P. aeruginosa isolate)
How it was run: as §1

[6] = tested on: P. aeruginosa PAO1
How it was run: as §1

[7] = tested on: A. baumannii ATCC19606
How it was run: as §1

[8] = tested on: K. pneumoniae OXA-48
How it was run: as §1

[9] = tested on: human red blood cells (hRBC); assay: Minimum hemolytic concentration (MHC); format: cell-based
Excerpt: We also measured minimal hemolysis concentrations (MHC) on human red blood cells by serial 2-fold dilution as an indication of toxicity against eukaryotic cells (Table 1).

[10] = diluted MH ([…] MH, pH 8.5) per Table 1 footnote b, 16–20 h at 37 °C
[11] = full MH, pH 7.4, 16–20 h at 37 °C

CC(C)C[C@H](NC(=O)[C@H](CC(C)C)NC(=O)[C@H](CC(C)C)NC(=O)[C@@H](CCCCN)NC(=O)[C@H](CC(C)C)NC(=O)[C@H](CC(C)C)NC(=O)[C@@H](CCCCN)NC(=O)[C@H](CC(C)C)NC(=O)[C@H](CC(C)C)NC(=O)[C@@H](CCCCN)NC(=O)[C@H](N)CCCCN)C(N)=O [ln69, kkLLkLLkLLL, reference compound] (H-[dK][dK]LL[dK]LL[dK]LLL-NH2)
MIC S. aureus COL (MRSA) Full MH 8.5 ([1]; Table S2, full MH, pH 8.5): 16 µg/mL (≈ 12.1 µM)
MIC S. aureus COL (MRSA) […] [1, 10]: 2 µg/mL (≈ 1.51 µM)
MIC S. aureus COL (MRSA) Full [1, 11]: 16 µg/mL (≈ 12.1 µM)
MIC K. pneumoniae NCTC418, […] MH at pH 7.4 ([2]; CSV, […] MH at pH 7.4): 4 ug/mL
MIC K. pneumoniae NCTC418, […] MH at pH 8.5 ([2]; CSV, […] MH at pH 8.5): 2 ug/mL
MIC K. pneumoniae NCTC418, full MH at pH 7.4 ([2]; CSV, full MH at pH 7.4): 8 ug/mL
MIC K. pneumoniae NCTC418, full MH at pH 8.5 ([2]; CSV, full MH at pH 8.5): 16 ug/mL
MIC K. pneumoniae NCTC418 […] 7.4 ([2]; Table S2, […] MH, pH 7.4): 4 µg/mL (≈ 3.03 µM)
MIC K. pneumoniae NCTC418 […] 8.5 ([2]; Table S2, […] MH, pH 8.5): 2 µg/mL (≈ 1.51 µM)
MIC K. pneumoniae NCTC418 Full MH 7.4 ([2]; Table S2, full MH, pH 7.4): 8 µg/mL (≈ 6.05 µM)
MIC K. pneumoniae NCTC418 Full MH 8.5 ([2]; Table S2, full MH, pH 8.5): 16 µg/mL (≈ 12.1 µM)
MIC K. pneumoniae NCTC418 […] [2, 10]: 4 µg/mL (≈ 3.03 µM)
MIC K. pneumoniae NCTC418 Full [2, 11]: 8 µg/mL (≈ 6.05 µM)
MIC P. aeruginosa PA14 4.18, […] MH at pH 8.5 ([3]; CSV, […] MH at pH 8.5): 4 ug/mL
MIC P. aeruginosa PA14 4.18, full MH at pH 7.4 ([3]; CSV, full MH at pH 7.4): 16 ug/mL
MIC PA14 4.18 (pmrB) ([3]; MH pH 7.4, 16–20 h at 37 °C): 16 µg/mL (≈ 12.1 µM)
MIC P. aeruginosa PA14 4.18 ([3]; Table S3, […] MH at pH 8.5): 4 µg/mL (≈ 3.03 µM)
MIC P. aeruginosa ZEM-1A, […] MH at pH 8.5 ([4]; CSV, […] MH at pH 8.5): 2 ug/mL
MIC P. aeruginosa ZEM-1A, full MH at pH 7.4 ([4]; CSV, full MH at pH 7.4): 2 ug/mL
MIC P. aeruginosa ZEM-1A ([4]; Table S3, […] MH at pH 8.5): 2 µg/mL (≈ 1.51 µM)
MIC P. aeruginosa ZEM9A, […] MH at pH 8.5 ([5]; CSV, […] MH at pH 8.5): 2 ug/mL
MIC P. aeruginosa ZEM9A, full MH at pH 7.4 ([5]; CSV, full MH at pH 7.4): 6 ug/mL
MIC ZEM9A ([5]; MH pH 7.4, 16–20 h at 37 °C): 4 to 8 µg/mL
MIC P. aeruginosa ZEM9A ([5]; Table S3, […] MH at pH 8.5): 2 µg/mL (≈ 1.51 µM)
MIC P. aeruginosa PAO1, […] MH at pH 7.4 ([6]; CSV, […] MH at pH 7.4): 4 ug/mL
MIC P. aeruginosa PAO1, […] MH at pH 8.5 ([6]; CSV, […] MH at pH 8.5): 2 ug/mL
MIC P. aeruginosa PAO1, full MH at pH 7.4 ([6]; CSV, full MH at pH 7.4): 8 ug/mL
MIC P. aeruginosa PAO1, full MH at pH 8.5 ([6]; CSV, full MH at pH 8.5): 8 ug/mL
MIC P. aeruginosa PAO1 […] 7.4 ([6]; Table S2, […] MH, pH 7.4): 4 µg/mL (≈ 3.03 µM)
MIC P. aeruginosa PAO1 […] 8.5 ([6]; Table S2, […] MH, pH 8.5): 2 µg/mL (≈ 1.51 µM)
MIC P. aeruginosa PAO1 Full MH 7.4 ([6]; Table S2, full MH, pH 7.4): 8 µg/mL (≈ 6.05 µM)
MIC P. aeruginosa PAO1 Full MH 8.5 ([6]; Table S2, full MH, pH 8.5): 8 µg/mL (≈ 6.05 µM)
MIC P. aeruginosa PAO1 […] [6, 10]: 4 µg/mL (≈ 3.03 µM)
MIC P. aeruginosa PAO1 Full [6, 11]: 8 µg/mL (≈ 6.05 µM)
MIC A. baumannii ATCC19606, […] MH at pH 7.4 ([7]; CSV, […] MH at pH 7.4): 2 ug/mL
MIC A. baumannii ATCC19606, […] MH at pH 8.5 ([7]; CSV, […] MH at pH 8.5): 2 ug/mL
MIC A. baumannii ATCC19606, full MH at pH 7.4 ([7]; CSV, full MH at pH 7.4): 3 ug/mL
MIC A. baumannii ATCC19606, full MH at pH 8.5 ([7]; CSV, full MH at pH 8.5): 12 ug/mL
MIC A. baumannii ATCC19606 […] 7.4 ([7]; Table S2, […] MH, pH 7.4): 2 µg/mL (≈ 1.51 µM)
MIC A. baumannii ATCC19606 […] 8.5 ([7]; Table S2, […] MH, pH 8.5): 2 µg/mL (≈ 1.51 µM)
MIC A. baumannii ATCC19606 Full MH 7.4 ([7]; Table S2, full MH, pH 7.4): 2 to 4 µg/mL
MIC A. baumannii ATCC19606 Full MH 8.5 ([7]; Table S2, full MH, pH 8.5): 8 to 16 µg/mL
MIC A. baumannii ATCC19606 […] [7, 10]: 2 µg/mL (≈ 1.51 µM)
MIC A. baumannii ATCC19606 Full [7, 11]: 2 to 4 µg/mL
MIC K. pneumoniae OXA-48, […] MH at pH 8.5 ([8]; CSV, […] MH at pH 8.5): 2 ug/mL
MIC K. pneumoniae OXA-48, full MH at pH 7.4 ([8]; CSV, full MH at pH 7.4): 4 ug/mL
MIC K. pneumoniae OXA-48 ([8]; MH pH 7.4, 16–20 h at 37 °C): 4 µg/mL (≈ 3.03 µM)
MIC K. pneumoniae OXA-48 ([8]; Table S3, […] MH at pH 8.5): 2 µg/mL (≈ 1.51 µM)
MHC [9]: 1000 µg/mL
